In patent publication US20260234115A1, “LIPID COMPOUNDS, COMPOSITIONS, AND USES THEREOF” (Liberate Bio, Inc., priority 2023, published 2026):
Marks after values point to notes of the source that are not given here.

Assays:
[1] = Dynamic light scattering: LNP particle size and PDI; type: physicochemical; conditions: for PDI N/P:3 / Size (nm) N/P:3 / PDI N/P:6 / Size (nm) N/P:6: LNP
Experimental: (§1) Lipids and active ingredients (e.g., RNA, DNA, etc.) were assembled into LNPs using microfluidic mixing. An ethanol phase was prepared by solubilizing ionizable lipids (i.e., lipid compounds), phospholipids (e.g., DSPC), cholesterol, and PEG lipids in ethanol, at predetermined mol % ratios given in Table 2. An aqueous phase was prepared by diluting a nucleic acid cargo (e.g., firefly luciferase mRNA) in an acidified buffer (pH 4.0 citrate buffer, 50 mM). A chip with microfluidic mixing architecture (e.g., toroidal mixer) was used to mix the two phases at predetermined flow rate ratios (e.g., 9 ml/min for the aqueous phase and 3 ml/min for the ethanol phase). Resulting LNPs comprising the lipids and encapsulating the nucleic acid cargo were dialyzed against PBS pH 7.4 for 2 hours at room temperature in a 20 kDa MWCO dialysis membrane. Then, PBS was refreshed to continue dialysis overnight at 2-8 TC. Upon completion of the buffer exchange, LNPs were optionally concentrated using a ultracentrifugal unit with a 10-100 kDa MWCO membrane.
d. Dynamic Light Scattering
LNPs were diluted with PBS pH 7.4 to predetermined dilution ranges based on the process step and LNP concentration. Following mixing, the particle size and PDI were measured by a dynamic light scattering instrument.

[2] = Plate-based fluorescence (RiboGreen) assay: nucleic acid cargo content and encapsulation efficiency of LNPs; type: physicochemical; conditions: for EE (%) N/P:3 / EE (%) N/P:6: LNP
Experimental: as §1
c. Plate-Based Fluorescence (RiboGreen) Assay
Nucleic acid cargos in the LNPs were quantified by RiboGreen assay, against a nucleic acid standard curve. LNPs encapsulating nucleic acid cargo were mixed with 1× Tris-EDTA (TE) and 2% triton in TE, separately, to achieve dilutions required by the assay. Then, the samples were heated at 30° C. and vortexed at 300 rpm. Samples were plated into 96-well plates and RiboGreen reagent was added into each well. Following incubation in the dark, fluorescence was measured from the wells, and plotted against the standard curve. Nucleic acid concentration obtained from the Triton-treated samples were used for total cargo concentration quantification. Only TE diluted sample fluorescence values were used to determine the non-encapsulated (free) cargo, and their ratio was used to determine the encapsulation efficiency (EE %).

mouse organs = test: In vivo activity screening in mice: organ mean total flux (p/s) of luciferase activity after injection of F2 LNP pools (Table 6, FIG. 7A-7C); conditions: luciferase mRNA
How it was run: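 C57BL/6J mice given one tail-vein injection of pooled Formulation F2 LNPs carrying firefly luciferase mRNA (0.25-3 mg/kg) in PBS. At 4-6 h, s.c. D-luciferin given; organs imaged ex vivo by IVIS within 10-15 min, after saline cardiac perfusion. Mean total flux (p/s) per organ ROI.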

[3] = LNP compositions for Formulation F2 Study
[4] = LNP compositions for in vivo mouse study, four formulations (F1-F4) of the lipid compound pooled, or pools of four compounds (sixteen compositions)
[5] = LNP compositions for in vivo mouse study, four formulations (F1-F4) pooled, or pools of four compounds

## CCCCC/C=C\CCOC(=O)CCCCCCC(=O)OCC(COC(=O)CCCCCCC(=O)OCC/C=C\CCCCC)(COC(=O)CCCCCCC(=O)OCC/C=C\CCCCC)COC(=O)CCC(CCCCCC)OC(=O)NCCN1CCCC1 (centres unmarked) [Compound 10, O8-[2,2-bis[[8-[(Z)-non-3-enoxy]-8-oxo-octanoyl]oxymethyl]-3-[4-(2-pyrrolidin-1-ylethylcarbamoyloxy)decanoyloxy]propyl]O1-[(Z)-non-3-enyl]octanedioate]
[1]; [3]
  PDI: 0.139
  Particle Size (nm): 125.5 nm
[1]; [4]
  Particle Size (nm): 91.7 nm
[1]; [5]
  PDI: 0.176
[1]; Formulation F1, N/P 3
  PDI N/P:3: 0.208
  Size (nm) N/P:3: 86 ± 4 nm
[1]; Formulation F1, N/P 6
  PDI N/P:6: 0.09
  Size (nm) N/P:6: 78 ± 3 nm
[1]; Formulation F2, N/P 3
  PDI N/P:3: 0.097
  Size (nm) N/P:3: 102 ± 3 nm
[1]; Formulation F2, N/P 6
  PDI N/P:6: 0.122
  Size (nm) N/P:6: 96 ± 0 nm
[1]; Formulation F3, N/P 3
  PDI N/P:3: 0.081
  Size (nm) N/P:3: 106 ± 2 nm
[1]; Formulation F3, N/P 6
  PDI N/P:6: 0.092
  Size (nm) N/P:6: 100 ± 3 nm
[1]; Formulation F4, N/P 3
  PDI N/P:3: 0.278
  Size (nm) N/P:3: 92 ± 4 nm
[1]; Formulation F4, N/P 6
  PDI N/P:6: 0.227
  Size (nm) N/P:6: 78 ± 1 nm
[2]; [3]
  EE %: 98%
[2]; [5]
  EE %: 99%
  mRNA Content: 101.7 µg/mL
[2]; Formulation F1, N/P 3
  EE (%) N/P:3: 98%
[2]; Formulation F1, N/P 6
  EE (%) N/P:6: 100%
[2]; Formulation F2, N/P 3
  EE (%) N/P:3: 98%
[2]; Formulation F2, N/P 6
  EE (%) N/P:6: 100%
[2]; Formulation F3, N/P 3
  EE (%) N/P:3: 96%
[2]; Formulation F3, N/P 6
  EE (%) N/P:6: 100%
[2]; Formulation F4, N/P 3
  EE (%) N/P:3: 98%
[2]; Formulation F4, N/P 6
  EE (%) N/P:6: 100%
Mouse organs; Mouse 1, dose 0.3 mg/kg
  Organ Mean Total Flux Femur: 7.1 p/s (×10^6)
  Organ Mean Total Flux Heart: 4.3 p/s (×10^6)
  Organ Mean Total Flux Kidney: 81.1 p/s (×10^6)
  Organ Mean Total Flux Liver: 12560 p/s (×10^6)
  Organ Mean Total Flux Lung: 41.5 p/s (×10^6)
  Organ Mean Total Flux Muscle: 6.2 p/s (×10^6)
  Organ Mean Total Flux Pancreas: 2.7 p/s (×10^6)
  Organ Mean Total Flux Spleen: 12.3 p/s (×10^6)
Mouse organs; Mouse 14, dose 0.5 mg/kg
  Organ Mean Total Flux Femur: 6.5 p/s (×10^6)
  Organ Mean Total Flux Heart: 2.8 p/s (×10^6)
  Organ Mean Total Flux Kidney: 3.7 p/s (×10^6)
  Organ Mean Total Flux Liver: 1175 p/s (×10^6)
  Organ Mean Total Flux Lung: 16.2 p/s (×10^6)
  Organ Mean Total Flux Muscle: 15.1 p/s (×10^6)
  Organ Mean Total Flux Pancreas: 4.0 p/s (×10^6)
  Organ Mean Total Flux Spleen: 10.2 p/s (×10^6)

## CCCCC/C=C\CCOC(=O)CCCCCCC(=O)OCC(COC(=O)CCCCCCC(=O)OCC/C=C\CCCCC)(COC(=O)CCC(CCCCCC)OC(=O)NCCN1CCCC1)COC(=O)CC12CC3CC(CC(C3)C1)C2 (centres unmarked) [Compound 11, O8-[2-[[2-(1-adamantyl)acetyl]oxymethyl]-2-[[8-[(Z)-non-3-enoxy]-8-oxo-octanoyl]oxymethyl]-3-[4-(2-pyrrolidin-1-ylethylcarbamoyloxy)decanoyloxy]propyl]O1-[(Z)-non-3-enyl]octanedioate]
[1]; [4]
  Particle Size (nm): 86 nm
[1]; [5]
  PDI: 0.13
[1]; Formulation F1, N/P 6
  PDI N/P:6: 0.16
  Size (nm) N/P:6: 77 ± 7 nm
[1]; Formulation F2, N/P 6
  PDI N/P:6: 0.11
  Size (nm) N/P:6: 88 ± 3 nm
[1]; Formulation F3, N/P 6
  PDI N/P:6: 0.14
  Size (nm) N/P:6: 91 ± 1 nm
[1]; Formulation F4, N/P 6
  PDI N/P:6: 0.30
  Size (nm) N/P:6: 74 ± 2 nm
[2]; [5]
  EE %: 97%
  mRNA Content: 105 µg/mL
[2]; Formulation F1, N/P 6
  EE (%) N/P:6: 100%
[2]; Formulation F2, N/P 6
  EE (%) N/P:6: 100%
[2]; Formulation F3, N/P 6
  EE (%) N/P:6: 97%
[2]; Formulation F4, N/P 6
  EE (%) N/P:6: 99%
Mouse organs; Mouse 1, dose 0.3 mg/kg
  Organ Mean Total Flux Femur: 5.3 p/s (×10^6)
  Organ Mean Total Flux Heart: 2.3 p/s (×10^6)
  Organ Mean Total Flux Kidney: 2.4 p/s (×10^6)
  Organ Mean Total Flux Liver: 5140 p/s (×10^6)
  Organ Mean Total Flux Lung: 27.7 p/s (×10^6)
  Organ Mean Total Flux Muscle: 21.8 p/s (×10^6)
  Organ Mean Total Flux Pancreas: 6.0 p/s (×10^6)
  Organ Mean Total Flux Spleen: 32.3 p/s (×10^6)

## CCCCC/C=C\CCOC(=O)CCCCCCC(=O)OCC(COC(=O)CCCCCCC(=O)OCC/C=C\CCCCC)(COC(=O)CCC(CCCCCC)OC(=O)NCCN1CCCC1)COC(=O)CCC(OCCCCCCCC)OCCCCCCCC (centres unmarked) [Compound 12, O8-[2-(4,4-dioctoxybutanoyloxymethyl)-2-[[8-[(Z)-non-3-enoxy]-8-oxo-octanoyl]oxymethyl]-3-[4-(2-pyrrolidin-1-ylethylcarbamoyloxy)decanoyloxy]propyl]O1-[(Z)-non-3-enyl]octanedioate]
[1]; [4]
  Particle Size (nm): 83.7 nm
[1]; [5]
  PDI: 0.119
[1]; Formulation F1, N/P 6
  PDI N/P:6: 0.16
  Size (nm) N/P:6: 81 ± 9 nm
[1]; Formulation F2, N/P 6
  PDI N/P:6: 0.07
  Size (nm) N/P:6: 84 ± 5 nm
[1]; Formulation F3, N/P 6
  PDI N/P:6: 0.04
  Size (nm) N/P:6: 93 ± 1 nm
[1]; Formulation F4, N/P 6
  PDI N/P:6: 0.09
  Size (nm) N/P:6: 63 ± 0 nm
[2]; [5]
  EE %: 97%
  mRNA Content: 91 µg/mL
[2]; Formulation F1, N/P 6
  EE (%) N/P:6: 98%
[2]; Formulation F2, N/P 6
  EE (%) N/P:6: 98%
[2]; Formulation F3, N/P 6
  EE (%) N/P:6: 97%
[2]; Formulation F4, N/P 6
  EE (%) N/P:6: 98%
Mouse organs; Mouse 1, dose 0.3 mg/kg
  Organ Mean Total Flux Femur: 1.3 p/s (×10^6)
  Organ Mean Total Flux Heart: 0.1 p/s (×10^6)
  Organ Mean Total Flux Kidney: 0.2 p/s (×10^6)
  Organ Mean Total Flux Liver: 61.8 p/s (×10^6)
  Organ Mean Total Flux Lung: 0.7 p/s (×10^6)
  Organ Mean Total Flux Muscle: 2.7 p/s (×10^6)
  Organ Mean Total Flux Pancreas: 0.2 p/s (×10^6)
  Organ Mean Total Flux Spleen: 0.7 p/s (×10^6)
